Assay results: article PMC8952208, “Synthesis, Antiplasmodial, and Antileukemia Activity of Dihydroartemisinin–HDAC Inhibitor Hybrids as Multitarget Drugs” (Pharmaceuticals, 2022)

How the values were obtained:
HL60 cells = assay: CellTiter-Glo cell viability assay, HL60; type: cell-based, human; details: Homo sapiens, HL-60; AML; 72 h, CellTiter-Glo, n = 3
Experimental: (§1) Healthy individually-derived fibroblasts were cultured in DMEM supplemented with 10% FCS. Regular cell line authentication was performed short tandem repeat (STR) analysis (DNA fingerprinting), followed by comparison with the original DSMZ cell line database.
(§2) Cell viability assay was performed with leukemic cell lines after 72 h incubation with the respective inhibitors using ATP-based CellTiter-Glo luminescent assay (Promega, Madison, WI, USA).

A2780 cells = assay: MTT cell viability assay; type: cell-based; details: Homo sapiens, 72 h, n ≥ 3 in triplicate, mean ± SD
Experimental: Reagents were obtained from PAN Biotech, Aidenbach Germany. The cell line was cultured at 37 °C under humidified air with 5% CO2 to a confluence of 80–90% before being used for further assays.
Intrinsic cytotoxicity of test compounds was determined by an MTT assay as previously described. A2780 cells were seeded in 96-well plates (Starlab GmbH, Hamburg, Germany) at a density of 20,000 cells/well and allowed to attach for 12 h. Cells were then treated with increasing concentrations of the test compounds. After 72 h, MTT (3-(4,5-dimethylthiazol-2-yl)-2,5-diphenyltetrazolium bromide) (BioChemica, Applichem GmbH, Darmstadt, Germany) solution (5 mg/mL in phosphate-buffered saline) was added to determine cell survival. The formazan dye was dissolved in DMSO (Sigma-Aldrich, Darmstadt, Germany) after 1 h. Absorbance was measured at 570 nm and 690 nm in a Multiskan microplate photometer (Thermo Fisher Scientific, Waltham, MA, USA). Concentration-response curves were generated using the four-parameter logistic equation (GraphPad Prism 9.0, San Diego, USA), and mean IC50 values were calculated in triplicates based on at least three different experiments.

K562 cells = assay: CellTiter-Glo cell viability assay, K562; type: cell-based, human; details: Homo sapiens, K562; CML; 72 h, CellTiter-Glo, n = 3
Experimental: as §1, §2

P. falciparum 3D7 = assay: microbe, parasite or virus in culture; type: cell-based; details: Plasmodium falciparum, 3D7, 72 h; asexual blood stages, three days incubation; n ≥ 2 in duplicate, mean ± SD; read-out: Pf3D7 IC50
Experimental: (§3) [38, 39] […] After three days of incubation at 37 °C, 5% CO2 and 5% O2 plates were frozen until analyzed by HRP2-ELISA. All compounds were evaluated in duplicate in at least two independent experiments. The IC50 was determined by nonlinear regression analysis of log concentration-response curves using the drc-package v3.0.1 [40] of R v4.0.5..

P. falciparum Dd2 = assay: microbe, parasite or virus in culture; type: cell-based; details: Plasmodium falciparum, DD2, 72 h, read-out: PfDd2 IC50
Experimental: as §3

human HDAC6 (hHDAC6) = biological target: T1, human HDAC6 (hHDAC6) (Homo sapiens, UniProt Q9UBN7); assay: In vitro human HDAC6 assay (ZMAL substrate); type: biochemical; details: for SI 1/6: Selectivity Index = (hHDAC1 IC50)/(hHDAC6 IC50)
T1 construct: purchased BPS Bioscience Inc. 50006
T1 sequence (Q9UBN7 1-1215): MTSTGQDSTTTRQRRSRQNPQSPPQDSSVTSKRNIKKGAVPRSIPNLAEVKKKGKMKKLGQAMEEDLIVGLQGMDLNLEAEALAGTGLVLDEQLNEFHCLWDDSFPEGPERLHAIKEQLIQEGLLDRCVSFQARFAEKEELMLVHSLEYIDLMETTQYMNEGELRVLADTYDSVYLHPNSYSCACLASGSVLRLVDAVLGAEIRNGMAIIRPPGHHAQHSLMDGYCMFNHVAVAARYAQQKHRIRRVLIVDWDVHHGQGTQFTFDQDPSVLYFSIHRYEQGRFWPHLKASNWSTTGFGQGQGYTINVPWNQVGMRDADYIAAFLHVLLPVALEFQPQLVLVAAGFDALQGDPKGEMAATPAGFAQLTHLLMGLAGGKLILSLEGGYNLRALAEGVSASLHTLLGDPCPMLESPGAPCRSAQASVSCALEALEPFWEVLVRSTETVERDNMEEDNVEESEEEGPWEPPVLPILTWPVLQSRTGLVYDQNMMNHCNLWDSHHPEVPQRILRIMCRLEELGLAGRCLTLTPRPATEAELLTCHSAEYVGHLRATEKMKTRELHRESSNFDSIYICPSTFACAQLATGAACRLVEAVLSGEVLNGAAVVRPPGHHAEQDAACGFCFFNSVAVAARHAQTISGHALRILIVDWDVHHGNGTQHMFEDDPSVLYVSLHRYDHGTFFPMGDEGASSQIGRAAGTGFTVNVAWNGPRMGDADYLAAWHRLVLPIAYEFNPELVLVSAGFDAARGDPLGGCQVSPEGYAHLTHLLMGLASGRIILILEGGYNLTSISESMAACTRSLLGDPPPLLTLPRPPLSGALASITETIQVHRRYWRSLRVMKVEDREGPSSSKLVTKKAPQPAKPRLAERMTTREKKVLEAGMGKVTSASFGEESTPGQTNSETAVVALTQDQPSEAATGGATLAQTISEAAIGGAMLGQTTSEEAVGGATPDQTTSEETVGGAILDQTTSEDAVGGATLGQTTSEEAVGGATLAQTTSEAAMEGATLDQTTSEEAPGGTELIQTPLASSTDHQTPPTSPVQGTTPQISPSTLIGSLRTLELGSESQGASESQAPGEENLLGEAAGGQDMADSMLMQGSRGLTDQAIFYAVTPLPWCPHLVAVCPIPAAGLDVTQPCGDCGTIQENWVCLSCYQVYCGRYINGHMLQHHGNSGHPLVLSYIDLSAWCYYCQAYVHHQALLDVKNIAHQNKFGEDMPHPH
Experimental: (§4) OptiPlate-96 black microplates (Perkin Elmer Inc., Waltham, MA, USA) were used with an assay volume of 50 µL. […] After an incubation time of 90 min, 50 µL of 0.4 mg/mL trypsin in trypsin buffer (50 mM Tris-HCl, pH 8.0, and 100 mM NaCl) was added, followed by further incubation at 37 °C for 30 min.

MOLM13 cells = assay: CellTiter-Glo cell viability assay, MOLM13; type: cell-based, human; details: Homo sapiens, MOLM-13; AML; 72 h, CellTiter-Glo, n = 3
Experimental: as §1, §2

HPBALL cells = assay: CellTiter-Glo cell viability assay, HPBALL; type: cell-based, human; details: Homo sapiens, HPBALL; T-ALL; 72 h, CellTiter-Glo, n = 3
Experimental: as §1, §2

human HDAC1 (hHDAC1) = biological target: T2, human HDAC1 (hHDAC1) (Homo sapiens, UniProt Q13547); assay: In vitro human HDAC1 assay (ZMAL substrate); type: biochemical
T2 construct: purchased BPS Bioscience Inc. 50051
T2 sequence (Q13547 whole entry): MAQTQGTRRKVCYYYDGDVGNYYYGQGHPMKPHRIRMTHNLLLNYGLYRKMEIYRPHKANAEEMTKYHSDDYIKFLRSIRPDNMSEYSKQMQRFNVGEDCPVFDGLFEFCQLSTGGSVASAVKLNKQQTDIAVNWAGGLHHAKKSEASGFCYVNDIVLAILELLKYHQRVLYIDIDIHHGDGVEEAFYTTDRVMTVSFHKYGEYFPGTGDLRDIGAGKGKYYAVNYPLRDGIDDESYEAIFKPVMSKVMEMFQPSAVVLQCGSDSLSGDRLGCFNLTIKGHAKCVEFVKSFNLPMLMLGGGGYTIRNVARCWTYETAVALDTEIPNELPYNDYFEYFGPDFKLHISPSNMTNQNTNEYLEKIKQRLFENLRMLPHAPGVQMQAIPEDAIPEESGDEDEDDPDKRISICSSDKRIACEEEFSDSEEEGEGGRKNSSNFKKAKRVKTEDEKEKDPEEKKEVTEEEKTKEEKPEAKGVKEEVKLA
Experimental: as §4

NALM6 cells = assay: CellTiter-Glo cell viability assay, NALM6; type: cell-based, human; details: Homo sapiens, NALM-6; B-ALL; 72 h, CellTiter-Glo, n = 3
Experimental: as §1, §2

P. falciparum Dd2 R539T = assay: In vitro P. falciparum growth inhibition assay (HRP2), Dd2 R539T; type: cell-based; details: Plasmodium falciparum, DD2, 72 h, read-out: PfDd2 R539T IC50
Experimental: Antiplasmodial activity of DHA–HDACi hybrids was evaluated against the asexual stages of the laboratory P. falciparum strains (3D7, chloroquine-sensitive strain, and Dd2, chloroquine-resistant strain, and Dd2 R539T (MRA-1255), provided by BEI Resources carrying a kelch13-mutation that conveys partial artemisinin resistance), using the histidine-rich protein 2 (HRP2) assay, as previously described. In brief: 96-well plates were precoated with the tested compounds in a three-fold serial dilution before ring-stage parasites were added in complete culture medium at a hematocrit of 1.5% and a parasitaemia of 0.05%. After three days of incubation at 37 °C, 5% CO2 and 5% O2 plates were frozen until analyzed by HRP2-ELISA. All compounds were evaluated in duplicate in at least two independent experiments. The IC50 was determined by nonlinear regression analysis of log concentration-response curves using the drc-package v3.0.1 [40] of R v4.0.5..

[1] = system: five leukemia cell lines (K562, HL60, NALM6, HPBALL, MOLM13); assay: CellTiter-Glo cell viability assay, panel of five leukemia cell lines; type: cell-based, human; details: number of the five leukemia cell lines in which DHA is exceeded
Experimental: as §1, §2

## C[C@H]1[C@@H](Sc2ccc(CC(=O)NO)cc2)O[C@@H]2O[C@@]3(C)CC[C@H]4[C@H](C)CC[C@@H]1[C@@]24OO3 [(α)-7e, N-Hydroxy-2-(4-(((3R,5aS,6R,8aS,9R,10R,12S,12aR)-3,6,9-trimethyldecahydro-12H-3,12-epoxy[1,2]dioxepino[4,3-i]isochromen-10-yl)thio)phenyl)acetamide]
HL60 cells
  IC50: 1620 ± 120 nM
A2780 cells
  IC50: 1830 ± 100 nM
K562 cells
  IC50: 770 ± 240 nM
P. falciparum 3D7
  IC50: 3.1 ± 0.7 nM
P. falciparum Dd2
  IC50: 1.8 ± 0.8 nM
Human HDAC6 (hHDAC6)
  IC50: 1100 ± 75 nM
  SI 1/6: >9
MOLM13 cells
  IC50: 450 ± 180 nM
HPBALL cells
  IC50: 3340 ± 370 nM
Human HDAC1 (hHDAC1)
  IC50: > 10000 nM
NALM6 cells
  IC50: 440 ± 10 nM

## C[C@H]1[C@H](Sc2ccc(CC(=O)NO)cc2)O[C@@H]2O[C@@]3(C)CC[C@H]4[C@H](C)CC[C@@H]1[C@@]24OO3 [(β)-7e, N-Hydroxy-2-(4-(((3R,5aS,6R,8aS,9R,10S,12S,12aR)-3,6,9-trimethyldecahydro-12H-3,12-epoxy[1,2]dioxepino[4,3-i]isochromen-10-yl)thio)phenyl)acetamide]
A2780 cells
  IC50: 2090 ± 420 nM
K562 cells
  IC50: 1710 ± 330 nM
P. falciparum 3D7
  IC50: 2.6 ± 1.3 nM
P. falciparum Dd2
  IC50: 1.6 ± 0.8 nM
Human HDAC6 (hHDAC6)
  IC50: 1000 ± 130 nM
  SI 1/6: >10
MOLM13 cells
  IC50: 640 ± 170 nM
HPBALL cells
  IC50: 20600 ± 6130 nM
Human HDAC1 (hHDAC1)
  IC50: > 10000 nM
NALM6 cells
  IC50: 770 ± 80 nM

## C[C@@H]1CC[C@H]2[C@@H](C)C(OCc3ccc(/C=C/C(=O)O)cc3)O[C@@H]3O[C@@]4(C)CC[C@@H]1[C@]32OO4 (stereo partly drawn) [Compound 6a, (E)-3-(4-((((3R,5aS,6R,8aS,9R,12R,12aR)-3,6,9-Trimethyldecahydro-12H-3,12-epoxy[1,2]dioxepino[4,3-i]isochromen-10-yl)oxy)methyl)phenyl)acrylic acid]
HL60 cells
  IC50: 2530 ± 560 nM
A2780 cells
  IC50: 3380 ± 210 nM
K562 cells
  IC50: 4010 ± 600 nM
P. falciparum 3D7
  IC50: 5.9 ± 0.7 nM
P. falciparum Dd2
  IC50: 5.8 ± 2.8 nM
Human HDAC6 (hHDAC6)
  IC50: > 10000 nM
MOLM13 cells
  IC50: 680 ± 90 nM
HPBALL cells
  IC50: 23900 ± 4690 nM
Human HDAC1 (hHDAC1)
  IC50: > 10000 nM
NALM6 cells
  IC50: 1310 ± 110 nM

## C[C@@H]1CC[C@H]2[C@@H](C)C(SCCCCCC(=O)NO)O[C@@H]3O[C@@]4(C)CC[C@@H]1[C@]32OO4 (stereo partly drawn) [Compound 7b, N-Hydroxy-6-(((3R,5aS,6R,8aS,9R,12S,12aR)-3,6,9-trimethyldecahydro-12H-3,12-epoxy[1,2]dioxepino[4,3-i]isochromen-10-yl)thio)hexanamide]
HL60 cells
  IC50: 2070 ± 30 nM
A2780 cells
  IC50: 1520 ± 50 nM
K562 cells
  IC50: 910 ± 320 nM
P. falciparum 3D7
  IC50: 5.2 ± 0.4 nM
P. falciparum Dd2
  IC50: 6.6 ± 2.5 nM
Human HDAC6 (hHDAC6)
  IC50: 45 ± 5 nM
  SI 1/6: 10
P. falciparum Dd2 R539T
  IC50: 3 ± 1.2 nM
MOLM13 cells
  IC50: 580 ± 190 nM
HPBALL cells
  IC50: 2410 ± 380 nM
Human HDAC1 (hHDAC1)
  IC50: 430 ± 46 nM
NALM6 cells
  IC50: 260 ± 10 nM

## C[C@H]1[C@H](OCc2ccc(C(=O)NO)cc2)O[C@@H]2O[C@@]3(C)CC[C@H]4[C@H](C)CC[C@@H]1[C@@]24OO3 [Compound 7d, N-Hydroxy-4-((((3R,5aS,6R,8aS,9R,10R,12R,12aR)-3,6,9-trimethyldecahydro-12H-3,12-epoxy[1,2]dioxepino[4,3-i]isochromen-10-yl)oxy)methyl)benzamide]
HL60 cells
  IC50: 2410 ± 450 nM
A2780 cells
  IC50: 1310 ± 320 nM
K562 cells
  IC50: 1000 ± 360 nM
P. falciparum 3D7
  IC50: 2.8 ± 1.3 nM
P. falciparum Dd2
  IC50: 2 ± 0.7 nM
Human HDAC6 (hHDAC6)
  IC50: 14 ± 2 nM
  SI 1/6: 178
P. falciparum Dd2 R539T
  IC50: 1.2 ± 0.8 nM
MOLM13 cells
  IC50: 390 ± 50 nM
HPBALL cells
  IC50: 6810 ± 540 nM
Human HDAC1 (hHDAC1)
  IC50: 2490 ± 240 nM
NALM6 cells
  IC50: 360 ± 50 nM

## C[C@@H]1CC[C@H]2[C@@H](C)C(OCc3ccc(/C=C/C(=O)Nc4ccccc4N)cc3)O[C@@H]3O[C@@]4(C)CC[C@@H]1[C@]32OO4 (stereo partly drawn) [Compound 8, (E)-N-(2-Aminophenyl)-3-(4-((((3R,5aS,6R,8aS,9R,12R,12aR)-3,6,9-trimethyldecahydro-12H-3,12-epoxy[1,2]dioxepino[4,3-i]isochromen-10-yl)oxy)methyl)phenyl)acrylamide]
HL60 cells
  IC50: 1640 ± 170 nM
A2780 cells
  IC50: 1470 ± 980 nM
K562 cells
  IC50: 690 ± 110 nM
P. falciparum 3D7
  IC50: 2.5 ± 1.4 nM
P. falciparum Dd2
  IC50: 2.5 ± 0.14 nM
[1]
  antiproliferative activity compared to DHA: exceeded the antiproliferative potential of DHA in four out of five cell lines
Human HDAC6 (hHDAC6)
  IC50: > 10000 nM
MOLM13 cells
  IC50: 490 ± 80 nM
HPBALL cells
  IC50: 1690 ± 190 nM
Human HDAC1 (hHDAC1)
  IC50: > 3330 nM
  inhibition at 3.33 µM: 41%
NALM6 cells
  IC50: 340 ± 30 nM
